Experimental findings from patent publication US5214056A, “1,3,2-dioxathiolane oxide derivative” (Japan Tobacco Inc., priority 1989, dated 1993) are described below.

SMILES strings stand for the structures.

The target of assay [1] is T1, Purified calpain (CANP) sampled from a rat brain (Rattus norvegicus, UniProt Q07009).
T1 construct: sampled from a rat brain; from tissue; host or cells: rat brain
T1 sequence (Q07009 1-700): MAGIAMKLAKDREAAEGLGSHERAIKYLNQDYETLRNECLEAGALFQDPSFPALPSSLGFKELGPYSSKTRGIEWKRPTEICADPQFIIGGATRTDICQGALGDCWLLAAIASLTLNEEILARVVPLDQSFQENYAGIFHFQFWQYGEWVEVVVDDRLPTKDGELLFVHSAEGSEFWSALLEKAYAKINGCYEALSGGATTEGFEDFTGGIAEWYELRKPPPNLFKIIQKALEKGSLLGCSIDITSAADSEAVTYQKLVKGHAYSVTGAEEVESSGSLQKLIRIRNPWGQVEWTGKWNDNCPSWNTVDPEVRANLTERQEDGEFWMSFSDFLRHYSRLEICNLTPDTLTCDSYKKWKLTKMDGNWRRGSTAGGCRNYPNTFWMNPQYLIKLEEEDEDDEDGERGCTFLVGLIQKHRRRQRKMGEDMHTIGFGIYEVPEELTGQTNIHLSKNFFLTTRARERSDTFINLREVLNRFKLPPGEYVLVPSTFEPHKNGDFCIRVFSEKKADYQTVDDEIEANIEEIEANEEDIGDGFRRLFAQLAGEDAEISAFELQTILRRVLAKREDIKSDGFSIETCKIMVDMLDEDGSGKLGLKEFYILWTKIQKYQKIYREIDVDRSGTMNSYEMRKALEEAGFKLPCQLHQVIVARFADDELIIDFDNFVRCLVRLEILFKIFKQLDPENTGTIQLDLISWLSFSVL
T1 sequence (Q64537 1-270 partner): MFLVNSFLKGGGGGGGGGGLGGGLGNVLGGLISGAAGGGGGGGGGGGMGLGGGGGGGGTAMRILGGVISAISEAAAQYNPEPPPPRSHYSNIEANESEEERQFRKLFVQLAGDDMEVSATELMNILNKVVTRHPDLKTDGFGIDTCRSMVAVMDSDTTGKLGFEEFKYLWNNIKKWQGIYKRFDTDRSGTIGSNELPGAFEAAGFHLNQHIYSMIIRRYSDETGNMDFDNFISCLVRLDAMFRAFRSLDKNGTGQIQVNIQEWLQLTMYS
Briefly: CANP inhibition activity in in vitro system. Type of assay: biochemical. The settings on record: N,N-dimethylcasein substrate, 30° C. for 20 minutes, pH 7.4, read-out: 50% inhibition concentration IC50. The method, then:
A solution mixture consisting of the following com-ponents was prepared.
A 167-mM Tris hydrochloric acid buffer solution (pH=7.4) (containing 15-mM mercaptoethanol); 40 μl
A solution obtained by dissolving the compound [I] of the present invention in the same Tris hydrochloric acid buffer solution as described above; 40 μl
Purified calpain [obtained by a method described in J. Biol. Chem., 239, 149 (1964)] sampled from a rat brain and dissolved in a 50-mM sodium acetic acid buffer solution (pH=6.0; containing 1-mM EDTA and 5-mM mercaptoethanol) 11 units/ml; 200 μl
An N,N-dimethylcasein solution (pH=7.0)
40 μl of a 167-mM Tris hydrochloric acid buffer solution (pH=7.4) containing 50-mM CaCl2 were added to the above solution mixture, and the resultant solution was incubated at 30° C. for 20 minutes. After the incubation, 320 μl of 10% (W/V) trichloroacetic acid were added to stop the reaction, and the resultant solution was left to stand in an ice bath for one hour. Thereafter, the solution was subjected to centrifugal separation (16,100×g, five minutes), and 600 μl of the supernatant were sampled to measure absorbance (a1) at 280 nm.
In another step, absorbance (a2) was obtained by performing an experiment and measurement following the same procedures as described above except that a 167-mM Tris hydrochloric acid buffer solution (pH=7.4; containing 15-mM mercaptoethanol) was used in place of the 167-mM Tris hydrochloric acid buffer solution containing the compound of the present invention. In addition, absorbance (a3) was obtained by performing an experiment and measurement following the same procedures as described above except that a 167-mM Tris hydrochloric acid buffer solution (pH=7.4; containing 1-mM EDTA) was used in place of the 167-mM tris buffer solution (pH=7.4) containing 50-mM CaCl2.
An inhibition ratio was calculated from the above absorbance values (a1), (a2), and (a3) in accordance with the following equation: [formula]
In addition, a concentration (IC50) required for 50% inhibition was calculated by using a semilogarithmical graph.

The target of assay [2] is T2, cathepsin B (Bos taurus, UniProt P07688).
T2 construct: purchased Sigma Co
Briefly: Cathepsin B inhibition activity in in-vitro system. Type of assay: biochemical. The note with it: cathepsin B (Sigma), benzoyl-(phenylalanyl-alginyl)-4-methyl-coumarinamide substrate, pH 6.0, 30° C. for 20 minutes; read-out: 50% inhibition concentration IC50. The method, then:
In this experiment, a 100-mM sodium phosphate buffer solution (pH=6.0; containing 1.33-mM EDTA Na2) was used as the buffer solutions for solution preparation.
A solution mixture consisting of the following components was prepared.
The above buffer solution; 850 μl
A 20-μM solution obtained by dissolving the compound of the present invention in the above buffer solution; 50 μl
A solution obtained by dissolving cathepsin B (available from Sigma Co.) in the above buffer solution to have a concentration of 0.5 mg/ml; 50 μl
50 μl of a 200-μM solution obtained by dissolving benzoyl-(phenylalanyl-alginyl)-4-methyl-coumarinamide in the above buffer solution were added to the above solution mixture, and the resultant solution was incubated at 30° C. for 20 minutes.
After the incubation, the reaction solution mixture was cooled in an ice bath to stop the reaction. After 20 minutes elapsed, the fluorescence intensity (b1) at an excitation wavelength of 370 nm and an emission wavelength of 440 nm was measured. At the same time, an experiment was performed using the above buffer solution in place of the solution of cathepsin B in the above system, and fluorescence intensity (b2) was measured following the same procedures as described above. In addition, an experiment was performed using the above buffer solution in place of the buffer solution of the compound of the present invention, and fluorescence intensity (b3) was measured following the same procedures as described above.
An inhibition ratio was calculated in accordance with the following equation: [formula] and a concentration (IC50) required for 50% inhibition was calculated by using a semilogarithmical graph.

As to `CC(C)CCNC(=O)[C@H](CC(C)C)NC(=O)[C@H]1OS(=O)(=O)O[C@@H]1C(=O)OCc1ccccc1` [Example 11, Benzyl (4S,5S)-5-[(S)-3-methyl-1-(3-methylbutylcarbamoyl)butylcarbamoyl]-1,3,2-dioxathiolane-4-carboxylate-2,2-dioxide], the values for the IC50 in assay [1] and in assay [2] were 6000 nM and 9 nM, respectively.
Take `CC(C)CC(NC(=O)C1OC1C(=O)O)C(=O)NCCCCNC(=N)N` (stereo not shown) [Example E-64, E-64, reference compound]: the IC50 in assay [1] was determined as 7000 nM; in assay [2], 35 nM.
Regarding `CCCCN(CCCC)C(=O)[C@H](CC(C)C)NC(=O)[C@H]1OS(=O)(=O)O[C@@H]1C(=O)OCC` [Example 14], in assay [2], the IC50 is 15 nM.
With `CCOC(=O)[C@H]1OS(=O)(=O)O[C@@H]1C(=O)N[C@@H](CC(C)C)C(=O)NCc1ccccc1` [Example 16, Ethyl (4S,5S)-5-[(S)-1-benzylcarbamoyl-3-methylbutylcarbamoyl]-1,3,2-dioxathiolane-4-carboxylate-2,2-dioxide], in assay [2], the IC50 came out at 3 nM.
Turning to `CC(C)CCNC(=O)[C@H](CC(C)C)NC(=O)[C@H]1OS(=O)(=O)O[C@@H]1C(=O)O` [Example 12, (4S,5S)-5[(S)-3-methyl-1-(3-methylbutylcarbamoyl)butylcarbamoyl]-1,3,2-dioxathiolane-4-carboxy-2,2-dioxide], the IC50 in assay [1] is 300 nM; in assay [2], 0.7 nM.
Take `CCOC(=O)[C@H]1OS(=O)(=O)O[C@@H]1C(=O)N[C@@H](CC(C)C)C(=O)NCCC(C)C` [Example 4, Ethyl (4S,5S)-5-[(S)-3-methyl-1-(3-methylbutylcarbamoyl)butylcarbamoyl]-1,3,2-dioxathiolane-4-carboxylate-2,2-dioxide]: the values for the IC50 in assay [1] and in assay [2] were 15000 nM and 25 nM, respectively.
